# Test results: patent US12358925B2, “Targeted ubiquitination degradation BRD4 protein compound, preparation method therefor and application thereof” (CSPC ZHONGQI PHARMACEUTICAL TECHNOLOGY (SHIJIAZHUANG) CO., …, priority 2019, dated 2025)
# Legend:
# [1] = test system: acute leukemia cell line RS4; 11; assay: MTT proliferation assay, RS4;11 cells; format: cell-based; details: Homo sapiens, 72 h after drug administration
# Source text: (§1) Cell lines for test: acute leukemia cell line RS4; 11 and multiple myeloma cell line MM.1S
# (§2) Test method: MTT (thiazole blue) method, which was also called MTT colorimetry assay, was a method used to detect cell survival and growth. The principle of the assay was that the succinate dehydrogenase in mitochondria of living cells could reduce the exogenous MTT to water-insoluble blue-purple crystal formazan and deposit it in the cells, while dead cells have no such function. Dimethyl sulfoxide (DMSO) could dissolve formazan in cells, and its light absorption value was measured at 550 nm wavelength by enzyme-linked immunoassay, which could indirectly reflect the number of living cells. Within a certain range of cell numbers, the amount of MTT crystal formation is proportional to the number of cells. This method has been widely used in the activity detection of some biologically active factors, large-scale anti-tumor drug screening, cytotoxicity test, and tumor radiosensitivity determination.
# (§3) The concentration gradient of the compound was as follows: 0-25.6 pM-128 pM-640 pM-3.2 nm-16 nM-80 nM-400 nM-2 μM-10 μM; (n=3)
# (§4) 72 h after drug administration, 20 μl per well of MTT working solution (5 mg/ml) was added, and incubated at 37° C. for 4 h, centrifuged in plate centrifuge at 1000 rpm/min for 5 min. 180 μl of medium was aspirated and 150 μl DMSO was added in RS4; 11 groups; 200 μl of medium was aspirated and 150 μl DMSO was added in MM.1S group; the mixture was shaken and mixed on microwell shaker, and the bottom of the plate was wiped, and the optical density (OD) was measured at 550 nm by microplate reader. The IC50 of the half inhibitory concentration was calculated by LOGIT method.
# [2] = test system: multiple myeloma cell line MM.1S; assay: MTT proliferation assay, MM.1S cells; format: cell-based; details: Homo sapiens, MM1.S, 72 h after drug administration
# Source text: as §1, §2, §3, §4
SMILES,IC50 [1],IC50 [2]
Cc1sc2c(c1C)C(c1ccc(Cl)cc1)=N[C@@H](CC(=O)NN1CCN(C(=O)CCNc3cccc4c3C(=O)N(C3CCC(=O)NC3=O)C4=O)CC1)c1nnc(C)n1-2 (some centres unmarked) [Example 5],< 20 nM,< 20 nM
Cc1sc2c(c1C)C(c1ccc(Cl)cc1)=N[C@@H](CC(=O)NN1CCN(C(=O)CCOCCOCCOCCNc3cccc4c3C(=O)N(C3CCC(=O)NC3=O)C4=O)CC1)c1nnc(C)n1-2 (some centres unmarked) [Example 9],< 20 nM,20 to 100 nM
Cc1sc2c(c1C)C(c1ccc(Cl)cc1)=N[C@@H](CC(=O)NN1CCN(C(=O)CCNc3cccc4c3CN(C3CCC(=O)NC3=O)C4=O)CC1)c1nnc(C)n1-2 (some centres unmarked) [Example 12],< 20 nM,< 20 nM
Cc1sc2c(c1C)C(c1ccc(Cl)cc1)=N[C@@H](CC(=O)NN1CCN(C(=O)COc3cccc4c3C(=O)N(C3CCC(=O)NC3=O)C4=O)CC1)c1nnc(C)n1-2 (some centres unmarked) [Example 15],< 20 nM,< 20 nM
Cc1sc2c(c1C)C(c1ccc(Cl)cc1)=N[C@@H](CC(=O)NNC(=O)CCC(=O)Nc1cccc3c1CN(C1CCC(=O)NC1=O)C3=O)c1nnc(C)n1-2 (some centres unmarked) [Example 31],20 to 100 nM,20 to 100 nM
"Cc1sc2c(c1C)C(c1ccc(Cl)cc1)=N[C@@H](CC(=O)NN1CCN(C(=O)CCC(=O)Nc3cccc4c3CN(C3CCC(=O)NC3=O)C4=O)CC1)c1nnc(C)n1-2 (stereo partly drawn) [Example 1, 4-(4-(2-((S)-4-(4-chlorophenyl)-2,3,9-trimethyl-6H-thieno[3,2-f][1,2,4]triazolo[4,3-a][1,4]diaza-6-yl)acetamido)piperazin-1-yl)-N-(2-(2,6-dioxpiperazin-3-yl)-1-oxoisoindolin-4-yl)-4-oxobutanamide]",< 20 nM,< 20 nM
Cc1sc2c(c1C)C(c1ccc(Cl)cc1)=N[C@@H](CC(=O)N1CCN(NC(=O)CCNc3cccc4c3C(=O)N(C3CCC(=O)NC3=O)C4=O)CC1)c1nnc(C)n1-2 (some centres unmarked) [Example 20],< 20 nM,< 20 nM
Cc1sc2c(c1C)C(c1ccc(Cl)cc1)=N[C@@H](CC(=O)NN1CCN(C(=O)CNc3cccc4c3C(=O)N(C3CCC(=O)NC3=O)C4=O)CC1)c1nnc(C)n1-2 (some centres unmarked) [Example 4],< 20 nM,< 20 nM
"Cc1sc2c(c1C)C(c1ccc(Cl)cc1)=N[C@@H](CC(=O)Nc1ccc(OCCOCCOCCOCCNc3cccc4c3C(=O)N(C3CCC(=O)NC3=O)C4=O)cc1)c1nnc(C)n1-2 (some centres unmarked) [ARV-825, reference compound]",20 to 100 nM,20 to 100 nM
Cc1sc2c(c1C)C(c1ccc(Cl)cc1)=N[C@@H](CC(=O)N1CCN(NC(=O)CNc3cccc4c3C(=O)N(C3CCC(=O)NC3=O)C4=O)CC1)c1nnc(C)n1-2 (some centres unmarked) [Example 19],< 20 nM,< 20 nM
Cc1sc2c(c1C)C(c1ccc(Cl)cc1)=N[C@@H](CC(=O)NN1CCN(C(=O)CNc3cccc4c3CN(C3CCC(=O)NC3=O)C4=O)CC1)c1nnc(C)n1-2 (some centres unmarked) [Example 11],< 20 nM,< 20 nM
"Cc1sc2c(c1C)C(c1ccc(Cl)cc1)=N[C@@H](CC(=O)OC(C)(C)C)c1nnc(C)n1-2 [JQ1, tert-butyl(S)-2-(4-(4-chlorophenyl)-2,3,9-trimethyl-6H-thieno[3,2-f][1,2,4]triazolo[4,3-a][1,4]diazepine-6-yl)acetate, reference compound]",≥ 100 nM,≥ 100 nM
Cc1sc2c(c1C)C(c1ccc(Cl)cc1)=N[C@@H](CC(=O)N1CCN(NC(=O)CCC(=O)Nc3cccc4c3CN(C3CCC(=O)NC3=O)C4=O)CC1)c1nnc(C)n1-2 (some centres unmarked) [Example 16],< 20 nM,< 20 nM
Cc1sc2c(c1C)C(c1ccc(Cl)cc1)=N[C@@H](CC(=O)NN1CCN(C(=O)CCOCCOCCNc3cccc4c3C(=O)N(C3CCC(=O)NC3=O)C4=O)CC1)c1nnc(C)n1-2 (some centres unmarked) [Example 8],20 to 100 nM,< 20 nM
Cc1sc2c(c1C)C(c1ccc(Cl)cc1)=N[C@@H](CC(=O)N1CCN(NC(=O)CNc3cccc4c3CN(C3CCC(=O)NC3=O)C4=O)CC1)c1nnc(C)n1-2 (some centres unmarked) [Example 26],20 to 100 nM,20 to 100 nM
"Cc1sc2c(c1C)C(c1ccc(Cl)cc1)=N[C@@H](CC(=O)NCCCCNC(=O)COc1cccc3c1C(=O)N(C1CCC(=O)NC1=O)C3=O)c1nnc(C)n1-2 (some centres unmarked) [dBET1, reference compound]",≥ 100 nM,≥ 100 nM
